ChEMBL document CHEMBL6078680, “Improving the Stability and Anti-Infective Activity of Sea Turtle AMPs Using Multiple Structural Modification Strategies” (J Med Chem, 2024)
Activity calls are given as the source filed them. The rule behind the calls is not given here. Starred links: 1 amine or outer side, 2 acyl side, 3 side chain; linkers in the order of their positions; H or OH if unused. Positions of bridges follow the written chain, without caps; N, C: chain ends. Non-standard residues stand in square brackets, D forms with d. Residues, ends and D or L forms follow the SMILES beside them. X2 = C[C@](CCCCCCCC=[*:3])(N[*:1])C(=O)[*:2]; X1 = C[C@@](CCCCC=[*:3])(N[*:1])C(=O)[*:2]

Tests used:
Staphylococcus aureus = assay: Antimicrobial activity against Staphylococcus aureus CMCC 26003 at 5 times MIC measured at 180 mins; format: functional, organism-based
Peritoneal macrophage [1] = assay: Antiinflammatory activity in mouse Peritoneal macrophage cells assessed as inhibition of LPS-induced TNF-alpha production at 20 microg/ml incubated for 6 hrs by ELISA analysis; format: functional, cell-based; conditions: dose 20.0 µg/ml
Peritoneal macrophage [2] = assay: Antiinflammatory activity in mouse Peritoneal macrophage cells assessed as inhibition of LPS-induced IL-6 production at 20 microg/ml incubated for 6 hrs by ELISA analysis; format: functional, cell-based; conditions: dose 20.0 µg/ml
Peritoneal macrophage [3] = assay: Cytotoxicity against mouse Peritoneal macrophage cells assessed as survival rate at 100 microg/ml; format: functional; conditions: read-out: Survival
HaCaT = assay: Cytotoxicity against human HaCaT cells assessed as survival rate at 100 microg/ml; format: functional; conditions: read-out: Survival
[4] = Hemolytic activity at human Erythrocyte assessed as hemolysis at 100 microg/ml; format: toxicity, cell-based; conditions: erythrocytes, at 100 µg/mL, read-out: Activity

Compound | Activity (Staphylococcus aureus) | Activity (Peritoneal macrophage [1]) | Activity (Peritoneal macrophage [2]) | viability at 100 µg/mL (Peritoneal macrophage [3]) | viability at 100 µg/mL (HaCaT) | hemolysis at 100 microg/ml [4]
H-RRSRFGRFFKKVR-NH2 | inactive | – | – | – | – | –
CC[C@H](C)[C@H](NC(=O)[C@H](CCCNC(=N)N)NC(=O)[C@H](CO)NC(=O)[C@H](Cc1c[nH]cn1)NC(=O)[C@H](CCCNC(=N)N)NC(=O)[C@H](CC(C)C)NC(=O)[C@@H](NC(=O)[C@@H]1CSSC[C@H](NC(=O)[C@@H](NC(=O)[C@H](CCCCN)NC(=O)[C@H](CCCCN)NC(=O)[C@@H](N)Cc2ccccc2)C(C)C)C(=O)N[C@@H](CCCNC(=N)N)C(=O)N[C@@H](CCCCN)C(=O)N[C@@H](CCC(N)=O)C(=O)N[C@@H](CC(C)C)C(=O)NCC(=O)N[C@@H](CCCNC(=N)N)C(=O)N1)C(C)C)C(=O)N[C@H](C(=O)N[C@H](C(=O)NCC(=O)NCC(=O)N[C@@H](CCCNC(=N)N)C(=O)N[C@@H](CCSC)C(=O)N[C@@H](CCCNC(=N)N)C(=O)N[C@@H](Cc1ccccc1)C(=O)O)C(C)C)[C@@H](C)O (H-FKKVCRKQLGRCVLRHSRITVGGRMRF-OH; disulfide 5-12) | inactive | Active | Active | > 80% | > 80% | < 5%
H-GRVLRHSRITVGGRMRF-OH | inactive | – | – | – | – | –
CC[C@H](C)[C@H](NC(=O)[C@H](CCCNC(=N)N)NC(=O)[C@H](CO)NC(=O)[C@H](Cc1c[nH]cn1)NC(=O)[C@H](CCCNC(=N)N)NC(=O)[C@H](CC(C)C)NC(=O)[C@@H](NC(=O)[C@H](CCCNC(=N)N)NC(=O)CNC(=O)[C@H](CC(C)C)NC(=O)[C@H](CCC(N)=O)NC(=O)[C@]1(C)CCCC/C=C\CCCC[C@](C)(NC(=O)[C@@H](N)Cc2ccccc2)C(=O)N[C@@H](CCCCN)C(=O)N[C@@H](C(C)C)C(=O)N[C@@H](CCCNC(=N)N)C(=O)N1)C(C)C)C(=O)N[C@H](C(=O)N[C@H](C(=O)NCC(=O)NCC(=O)N[C@@H](CCCNC(=N)N)C(=O)N[C@@H](CCSC)C(=O)N[C@@H](CCCNC(=N)N)C(=O)N[C@@H](Cc1ccccc1)C(=O)O)C(C)C)[C@@H](C)O (H-F[X1]KVR[X1]QLGRVLRHSRITVGGRMRF-OH; staple (Z) 2-6) | inactive | Active | Active | – | – | < 5%
CC[C@H](C)[C@H](NC(=O)[C@H](CCCNC(=N)N)NC(=O)[C@H](CO)NC(=O)[C@H](Cc1c[nH]cn1)NC(=O)[C@H](CCCNC(=N)N)NC(=O)[C@H](CC(C)C)NC(=O)[C@@H](NC(=O)[C@H](CCCNC(=N)N)NC(=O)CNC(=O)[C@]1(C)CCCC/C=C\CCCCCCC[C@@](C)(N)C(=O)N[C@@H](CCCCN)C(=O)N[C@@H](CCCCN)C(=O)N[C@@H](C(C)C)C(=O)N[C@@H](CCCNC(=N)N)C(=O)N[C@@H](CCCCN)C(=O)N[C@@H](CCC(N)=O)C(=O)N1)C(C)C)C(=O)N[C@H](C(=O)N[C@H](C(=O)NCC(=O)NCC(=O)N[C@@H](CCCNC(=N)N)C(=O)N[C@@H](CCSC)C(=O)N[C@@H](CCCNC(=N)N)C(=O)N[C@@H](Cc1ccccc1)C(=O)O)C(C)C)[C@@H](C)O (H-[X2]KKVRKQ[X1]GRVLRHSRITVGGRMRF-OH; staple (Z) 1-8) | inactive | Active | Active | – | – | < 5%
CC[C@H](C)[C@H](NC(=O)[C@H](CCCNC(=N)N)NC(=O)[C@H](CO)NC(=O)[C@H](Cc1c[nH]cn1)NC(=O)[C@H](CCCNC(=N)N)NC(=O)[C@]1(C)CCCC/C=C\CCCC[C@](C)(NC(=O)[C@H](CCC(N)=O)NC(=O)[C@H](CCCCN)NC(=O)[C@H](CCCNC(=N)N)NC(=O)[C@@H](NC(=O)[C@H](CCCCN)NC(=O)[C@H](CCCCN)NC(=O)[C@@H](N)Cc2ccccc2)C(C)C)C(=O)NCC(=O)N[C@@H](CCCNC(=N)N)C(=O)N[C@@H](C(C)C)C(=O)N1)C(=O)N[C@H](C(=O)N[C@H](C(=O)NCC(=O)NCC(=O)N[C@@H](CCCNC(=N)N)C(=O)N[C@@H](CCSC)C(=O)N[C@@H](CCCNC(=N)N)C(=O)N[C@@H](Cc1ccccc1)C(=O)O)C(C)C)[C@@H](C)O (H-FKKVRKQ[X1]GRV[X1]RHSRITVGGRMRF-OH; staple (Z) 8-12) | inactive | Active | Active | – | – | < 5%
H-RKQLGRVLRHSRITVGGRMRF-OH | inactive | – | – | – | – | –
H-QLGRVLRHSRITVGGRMRF-OH | inactive | – | – | – | – | –
CC[C@H](C)[C@H](NC(=O)[C@H](CCCNC(=N)N)NC(=O)[C@H](CO)NC(=O)[C@H](Cc1c[nH]cn1)NC(=O)[C@]1(C)CCCC/C=C\CCCCCCC[C@@](C)(NC(=O)[C@H](CCCNC(=N)N)NC(=O)[C@@H](NC(=O)[C@H](CCCCN)NC(=O)[C@H](CCCCN)NC(=O)[C@@H](N)Cc2ccccc2)C(C)C)C(=O)N[C@@H](CCC(N)=O)C(=O)N[C@@H](CC(C)C)C(=O)NCC(=O)N[C@@H](CCCNC(=N)N)C(=O)N[C@@H](C(C)C)C(=O)N[C@@H](CC(C)C)C(=O)N1)C(=O)N[C@H](C(=O)N[C@H](C(=O)NCC(=O)NCC(=O)N[C@@H](CCCNC(=N)N)C(=O)N[C@@H](CCSC)C(=O)N[C@@H](CCCNC(=N)N)C(=O)N[C@@H](Cc1ccccc1)C(=O)O)C(C)C)[C@@H](C)O (H-FKKVR[X2]QLGRVL[X1]HSRITVGGRMRF-OH; staple (Z) 6-13) | inactive | Active | Active | – | – | < 5%
CC[C@H](C)[C@H](NC(=O)[C@H](CCCNC(=N)N)NC(=O)[C@H](CO)NC(=O)[C@H](Cc1c[nH]cn1)NC(=O)[C@H](CCCNC(=N)N)NC(=O)[C@H](CC(C)C)NC(=O)[C@@H](NC(=O)[C@H](CCCNC(=N)N)NC(=O)CNC(=O)[C@]1(C)CCCC/C=C\CCCC[C@](C)(NC(=O)[C@H](CCCCN)NC(=O)[C@H](CCCCN)NC(=O)[C@@H](N)Cc2ccccc2)C(=O)N[C@@H](CCCNC(=N)N)C(=O)N[C@@H](CCCCN)C(=O)N[C@@H](CCC(N)=O)C(=O)N1)C(C)C)C(=O)N[C@H](C(=O)N[C@H](C(=O)NCC(=O)NCC(=O)N[C@@H](CCCNC(=N)N)C(=O)N[C@@H](CCSC)C(=O)N[C@@H](CCCNC(=N)N)C(=O)N[C@@H](Cc1ccccc1)C(=O)O)C(C)C)[C@@H](C)O (H-FKK[X1]RKQ[X1]GRVLRHSRITVGGRMRF-OH; staple (Z) 4-8) | inactive | Active | Active | – | – | < 5%
H-KVRKQLGRVLRHSRITVGGRMRF-OH | inactive | – | – | – | – | –
H-VLRHSRITVGGRMRF-OH | inactive | – | – | – | – | –
H-RRSRFGRFFKKVRKQ-NH2 | inactive | – | – | – | – | –
H-RRSRFGRFFKKVRKQLGRVLRHSRITVGGRMRF-OH | inactive | – | – | – | – | –
H-RHSRITVGGRMRF-OH | inactive | – | – | – | – | –
